Test results: PubChem BioAssay AID651857 (Broad Institute, 2012)
Values joined by “and” are separate entries in the source; they are usually repeats but may differ in a detail not shown here. Equal entries are not always repeated. Active and inactive are the calls of the source. The rule behind the calls is not given here.

Experiments:
[1] = system: M. tuberculosis starvation survival, CFU enumeration; assay: M tuberculosis starvation survival, cfu enumeration, confirmatory dry powder inhibitor dose response, ic90 (AID 651857)
[2] = as above; settings: M. tuberculosis starvation survival, CFU enumeration

Structure (SMILES)	IC90 [1]	outcome [2]
c1ccc(CSc2nnc(-c3ccccn3)o2)cc1	31 µM	–
Fc1ccc(-c2nnc(SCc3cn(-c4ccccc4)nn3)o2)cc1	2 µM	–
Clc1ccc(-c2nnc(SCc3cn(-c4ccccc4)nn3)o2)cc1	2 µM	–
c1ccc(CSc2nnc(-c3cccnc3)o2)cc1	62 µM	–
c1ccc(CCc2nnc(-c3ccccc3)o2)cc1	> 62 µM (inactive)	–
Fc1ccc(Cn2cc(CSc3nnc(C4CCCC4)o3)nn2)cc1	8 µM	–
c1ccc(Cn2cc(CSc3nnc(C4CCCC4)o3)nn2)cc1	31 µM	–
FC1(F)CN(CCSc2nnc(-c3ccccc3)o2)C1	> 62 µM (inactive)	–
CN(Cc1ccccc1)c1nnc(-c2ccccc2)o1	> 62 µM (inactive)	–
Fc1cccc(CSc2nnc(-c3ccccc3)o2)c1	31 µM	–
Clc1ccc(CSc2nnc(-c3ccccc3)o2)cc1	8 µM	–
O=S(Cc1ccccc1)c1nnc(-c2ccccc2)o1 (stereo unspecified)	< 8 µM and 2 µM	–
COc1ccc(CSc2nnc(-c3ccccc3)o2)cc1	> 62 µM (inactive)	–
Fc1cccc(-c2nnc(SCc3ccccn3)o2)c1	< 8 µM	–
N#Cc1ccccc1CSc1nnc(-c2ccccc2)o1	> 62 µM (inactive)	–
c1ccc(Cn2cc(CSc3nnc(-c4ccccc4)o3)nn2)cc1	4 µM	–
Fc1ccc(-c2nnc(SCc3ccccn3)o2)cc1	< 8 µM	–
Fc1ccc(Cn2cc(CSc3nnc(-c4ccc(Cl)cc4)o3)nn2)cc1	2 µM	–
Clc1ccc(-c2nnc(SCc3cn(Cc4ccccc4)nn3)o2)cc1	2 µM and < 8 µM	–

Structure (SMILES)	IC90 [1]	outcome [2]
Brc1cccc(-c2nnc(SCc3ccccn3)o2)c1	< 8 µM	–
c1ccc(-n2cc(CSc3nnc(C4CCC4)o3)nn2)cc1	2 µM	–
c1ccc(-c2nnc(SCc3ccccn3)o2)cc1	4 µM	–
O=S(Cc1cn(Cc2ccccc2)nn1)c1nnc(-c2ccc(Cl)cc2)o1 (stereo unspecified)	< 31 µM and 8 µM	–
Fc1ccc(Cn2cc(CSc3nnc(-c4ccc(F)cc4)o3)nn2)cc1	2 µM	–
Fc1ccc(-c2nnc(SCc3cn(Cc4ccccc4)nn3)o2)cc1	2 µM	–
Fc1ccc(-c2nnc(SCc3ccccc3)o2)cc1	31 µM	–
COCCSc1nnc(-c2ccccc2)o1	4 µM	–
c1ccc(-n2cc(CSc3nnc(C4CCCC4)o3)nn2)cc1	4 µM	–
[N-]=[N+]=NCCOCCNC(=O)CCCOc1ccc(CS(=O)c2nnc(-c3ccc(Cl)cc3)o2)nc1 (stereo unspecified)	< 8 µM	–
c1ccc(CSc2nnc(C3CCCC3)o2)cc1	31 µM	–
FC(F)(F)Oc1ccc(CSc2nnc(-c3ccccc3)o2)cc1	> 62 µM (inactive)	–
O=S(Cc1cn(Cc2ccc(F)cc2)nn1)c1nnc(-c2ccc(Cl)cc2)o1 (stereo unspecified)	2 µM	–
[N-]=[N+]=NCCOCCNC(=O)CCCOc1ccc(CSc2nnc(-c3ccc(Cl)cc3)o2)nc1	< 8 µM	–
c1ccc(COc2nnc(-c3ccccc3)o2)cc1	> 62 µM (inactive)	–
c1ccc(CSc2nnc(-c3ccccc3)o2)cc1	8 µM	–
c1ccc(CSc2nnc(-c3cnco3)o2)cc1	16 µM	–
c1ccc(Cn2cc(CSc3nnc(C4CCC4)o3)nn2)cc1	8 µM	–
Brc1ccc(-c2nnc(SCc3ccccn3)o2)cc1	< 8 µM	–

Structure (SMILES)	IC90 [1]	outcome [2]
c1ccc(-c2nnc(SCCN3CCN(c4ccccc4)CC3)o2)cc1	16 µM	–
FC1(F)CCN(CCSc2nnc(-c3ccccc3)o2)CC1	> 62 µM (inactive)	–
c1ccc(-c2nnc(SCc3cscn3)o2)cc1	62 µM	–
c1ccc(-c2nnc(SC3CCCCC3)o2)cc1	31 µM	–
Fc1cccc(-c2nnc(SCc3ccccc3)o2)c1	62 µM	–
O=S(=O)(Cc1cn(Cc2ccccc2)nn1)c1nnc(-c2ccc(Cl)cc2)o1	–	inactive
O=S(=O)(Cc1ccccc1)c1nnc(-c2ccccc2)o1	< 62 µM and 8 µM	–
Fc1ccc(Cn2cc(CSc3nnc(C4CCC4)o3)nn2)cc1	8 µM	–
FC(F)(F)c1ccccc1CSc1nnc(-c2ccccc2)o1	> 62 µM (inactive)	–
c1ccc(-c2nnc(SCCC3OCCCO3)o2)cc1	10 µM	–
c1ccc(CSc2nnc(-c3cccs3)o2)cc1	> 62 µM (inactive)	–
Fc1ccc(CSc2nnc(-c3ccccc3)o2)cc1	62 µM	–
Cc1ccc(-c2nnc(SCc3ccccc3)o2)cc1	> 62 µM (inactive)	–
CC(C)c1nnc(SCc2ccccc2)o1	125 µM	–
COc1ccc(CSc2nnc(-c3ccc(Cl)cc3)o2)nc1	< 8 µM	–
COc1cccc(CSc2nnc(-c3ccccc3)o2)c1	16 µM	–
[O-][n+]1ccccc1CSc1nnc(-c2ccccc2)o1	> 62 µM (inactive)	–
COc1cccc(-c2nnc(SCc3ccccn3)o2)c1	< 8 µM	–
